Measured values as given in article PMC5854716, “Synthesis, molecular docking, ctDNA interaction, DFT calculation and evaluation of antiproliferative and anti-Toxoplasma gondii activities of 2,4-diaminotriazine-thiazole derivatives” (Medicinal Chemistry Research, 2018).
≈ marks a conversion by molar mass, not a printed value.

What was measured:
[1] = system: Toxoplasma gondii BK strain; test: T. gondii tachyzoite intracellular proliferation in VERO host cells ([3H]uracil incorporation); format: cell-based; conditions: VERO host cells; for activity at 0.9 µg/mL / activity at 1.8 µg/mL / activity at 3.9 µg/mL / activity at 7.8 µg/mL / activity at 15.6 µg/mL / activity at 31.2 µg/mL / activity at 62.5 µg/mL / activity at 125 µg/mL / IC50: Toxoplasma gondii; for IC50 / IC50 (50% inhibition of T. gondii proliferation in vitro): GraphPad Prism curves; for IC50: read-out: IC50 (50% inhibition of T. gondii proliferation in vitro)
Protocol: The epithelial cell line VERO (ATCC-Catalog No. CCL-81^TM), derived from the kidney of the African green monkey, Cercopithecus aethiops and fibroblast cell line L-929 (ATCC-Catalog No. CCL-1^TM), derived from Mus musculus (http://www.atcc.org) were grown in Iscoves’s Modified Dulbecco’s Medium (IMDM) supplemented with 10% (v/v) fetal bovine serum (FBS), plus 2 mM L-glutamine, 100 U/ml penicillin, 100.00 µg/ml streptomycin, 5 × 10^−5 M 2-mercaptoethanol and maintained at 37 °C in a 10% CO2 atmosphere. Subcultures were performed via enzymatic cell dissociation in 0.25% trypsin. After dissociation, the cells were placed in culture medium at 4 °C with 10% FBS to inhibit the action of trypsin. The isolated cells were centrifuged for 10 min at 1000×g at 4 °C, and the cells were grown in new bottles. This procedure was repeated when cells reached a confluence of ~90%. All commercial reactants and solvents were purchased from either Sigma-Aldrich Laborchemikalien GmbH (Dzitko et al. [2014]).
Suspensions of the compounds 4a–l were freshly prepared (5 mg/ml DMSO) before the cells were exposed, and diluted to appropriate concentrations; 0.9, 1.8, 3.9, 7.8, 15.6, 31.2, 62.5, and 125.00 μg/ml with the culture medium. Cells treated with 2.5% DMSO-solvent served as a control in each experiment.
Stock solutions of the Sulfadiazine (100 mg/ml 1 N NaOH; Catalog No. S8626) was freshly prepared before each experiment, and diluted to appropriate concentrations: 5.00, 25.00, 50.00, 125.00, 250.00, 500.00, 1250.00, and 2500.00 μg/ml, respectively in IMDM complete medium. All commercial reactants and solvents were purchased from either Sigma-Aldrich Laborchemikalien GmbH.
Tachyzoites of T. gondii, BK strain, were maintained in female C57BL/6 (H-2^b) and BALB/c (H-2^d) mice (with genetically determined high and low susceptibility, respectively to Toxoplasma infection) via serial intraperitoneal inoculation of 10^5–10^6 parasites per mouse in phosphate-buffered saline (PBS). After 48 to 96 h, parasites were harvested via peritoneal lavage using PBS, pH 7.2, and centrifuged at 200×g for 5 min to remove blood cells and cell debris. The supernatant containing tachyzoites was collected and centrifuged again at 2000×g for 15 min. The final pellet was resuspended in IMDM, quantified in a Burker’s chamber, and used in experimental assays. Inbred mice were kept under standard laboratory conventional conditions. All experimental procedures were conducted according to guidelines of the 9. Local Ethics Commission for Experiments on Animals in Lodz.
VERO, (2 × 10^4 cells/100 µl/well) were grown in complete medium (IMDM) on 96-well plates. After 24 h incubation, a medium was removed and then T. gondii […] tachyzoites, suspended in culture medium supplemented with 0.9–125.00 μg/ml diaminotriazines 4a–l and as a control-sulfadiazine (5.0–2500.0 μg/ml), were added (2 × 10^5 tachyzoites/200 µl/well) to the cell monolayers. After subsequent 48 h incubation 1 µCi/well of [^3H] uracil (Moravek Biochemicals Inc., Brea, CA, USA) was applied to each microculture for further 18–20 h. The amount of the isotope incorporated into the parasite nucleic acid pool, corresponding to the parasite growth, was measured by liquid scintillation counting with 1450 Microbeta Plus Liquid Scintillation Counter (Wallac Oy, Turku, Finland). The cpms of host cells alone (below 250/microculture) were subtracted from cpms of T. gondii infected microcultures (Dzitko et al. [2014]).

[2] = system: normal mouse fibroblast Balb/3T3 cells; test: In vitro cytotoxicity (SRB), Balb/3T3; format: cell-based; conditions: mean ± SD; for IC50: Mus musculus, BALB/3T3, 72 h exposure; for IC50 Balb/3T3: 72 h exposure
Protocol: Biphenotypic B myelomonocytic leukemia MV4-11, human lung carcinoma A549, human breast carcinoma MCF-7, and normal mouse fibroblast BALB/3T3 cells were obtained from American Type Culture Collection (Rockville, Maryland, USA). All the cell lines are being maintained at the Institute of Immunology and Experimental Therapy, Wroclaw, Poland. MV4-11 cells were cultured in RPMI 1640 medium (Gibco, UK) with 2 mM L-glutamine adjusted to contain 1.0 mM sodium pyruvate, and 10% fetal bovine serum (FBS) (all from Sigma-Aldrich, Germany). A549 cells were cultured in RPMI 1640+ Opti-MEM (1:1) (both from Gibco, UK), MCF-7 cells in Eagle medium (IIET, Wroclaw, Poland), BALB/3T3 in Dulbecco medium (IIET, Poland) supplemented with 2 mM L-glutamine and 1.0 mM sodium pyruvate, 10% fetal bovine serum (all from Sigma-Aldrich, Germany). The MCF-7 cell culture was supplemented with 0.8 mg/l of insulin (Sigma-Aldrich, Germany). All culture media were supplemented with 100 units/ml penicillin, and 100 µg/ml streptomycin (both from Polfa Tarchomin S.A., Poland). All cell lines were grown at 37 °C with 5% CO2 humidified atmosphere (Łączkowski et al. [2014], [2016a]). Prior to usage, the compounds were dissolved in DMSO and culture medium (1: 9) to the concentration of 1 mg/ml, and subsequently diluted in culture medium to reach the required concentrations (0.1, 1, 10, and 100 µg/ml) (Łączkowski et al. [2014], [2016a]). Twenty-four hours prior to the addition of the tested compounds, the cells counted using Burker hemocytometer were plated in 96-well plates (Sarstedt, Germany) at a density of 1 × 10^4 cells per well. The assay was performed after 72 h of exposure to varying concentrations of the tested agents. The in vitro cytotoxic effect of all agents was examined using the SRB assay for adherent cells (A549, MCF-7, and BALB/3T3) or MTT assay for leukemia cells (MV4-11) as described previously. […] Each compound in each concentration was tested in triplicate in a single experiment, which was repeated 3–7 times (Rubinstein et al. [1990]; Bramson et al. [1995]). Cells were attached to the bottom of plastic wells by fixing them with cold 50% TCA (trichloroacetic acid, POCH, Gliwice, Poland) on top of the culture medium in each well. The plates were incubated at 4 °C for 1 h and then washed five times with tap water. The cellular material fixed with TCA was stained with 0.1% sulforhodamine B (SRB, Sigma-Aldrich, Germany) and dissolved in 1% acetic acid (POCH, Gliwice, Poland) for 30 min. Unbound dye was removed by rinsing (4×) in 1% acetic acid. The protein-bound dye was extracted with 10 mM unbuffered Tris base (Sigma-Aldrich, Germany) for determination of the optical density (λ = 540 nm) in a computer-interfaced, 96-well Synergy H4 (BioTek Instruments USA) photometer microtiter plate reader (Sidoryk et al. [2012]).

Row | Structure (SMILES) | activity at 0.9 µg/mL ([1]; 0.9 µg/ml) [%] | activity at 1.8 µg/mL ([1]; 1.8 µg/ml) [%] | activity at 3.9 µg/mL ([1]; 3.9 µg/ml) [%] | activity at 7.8 µg/mL ([1]; 7.8 µg/ml) [%] | activity at 15.6 µg/mL ([1]; 15.6 µg/ml) [%] | activity at 31.2 µg/mL ([1]; 31.2 µg/ml) [%] | activity at 62.5 µg/mL ([1]; 62.5 µg/ml) [%] | activity at 125 µg/mL ([1]; 125.0 µg/ml) [%] | IC50 [1] [µg/mL] | IC50 [2] [µg/mL] | T. gondii intracellular proliferation ([1]; 0.9 µg/ml) [%] | T. gondii intracellular proliferation ([1]; 1.8 µg/ml) [%] | T. gondii intracellular proliferation ([1]; 3.9 µg/ml) [%] | T. gondii intracellular proliferation ([1]; 7.8 µg/ml) [%] | T. gondii intracellular proliferation ([1]; 15.6 µg/ml) [%] | T. gondii intracellular proliferation ([1]; 31.2 µg/ml) [%] | T. gondii intracellular proliferation ([1]; 62.5 µg/ml) [%] | IC50 (50% inhibition of T. gondii proliferation in vitro) [1] [µg/mL] | IC50 Balb/3T3 [2] [µg/mL] | T. gondii intracellular proliferation ([1]; 125.0 µg/ml) [%]
1 | C/C(=N\Nc1nc(-c2ccccc2)cs1)c1ccc(Nc2nc(N)nc(N)n2)cc1 [Compound 4k, (E)-N^2-(4-(1-(2-(4-phenyl-1,3-thiazol-2-yl)hydrazinylidene)ethyl)phenyl)-1,3,5-triazine-2,4,6-triamine] | 100 | 100 | 96.3 | 85.9 | 63.6 | 49.4 | 36.1 | 17.7 | 31.5 (≈ 75.5 µM) | > 100 |  |  |  |  |  |  |  |  |  | 
2 | C/C(=N\Nc1nc(-c2ccc3[nH]c(=O)oc3c2)cs1)c1ccc(Nc2nc(N)nc(N)n2)cc1 [Compound 4l, (E)-6-(2-(2-(1-(4-(4,6-diamino-1,3,5-triazin-2-yloamino)phenyl)ethylidene)hydrazinyl)thiazol-4-yl)-benzo[d]oxazol-2(3H)-on] |  |  |  |  |  |  |  |  |  |  | 99.98 | 101.25 | 106.91 | 79.89 | 56.46 | 45.15 | 20.34 | 23.09 | >100 | 
3 | C/C(=N\Nc1nc(-c2ccc(F)cc2)cs1)c1ccc(Nc2nc(N)nc(N)n2)cc1 [Compound 4a, (E)-N^2-(4-(1-(2-(4-(4-fluorophenyl)-1,3-thiazol-2-yl)hydrazinylidene)ethyl)phenyl)-1,3,5-triazine-2,4,6-triamine] | 102 | 101 | 101 | 108 | 99.1 | 77.6 | 34.9 | 17.6 | 51.6 (≈ 119 µM) | 62.6 ± 8.69 |  |  |  |  |  |  |  |  |  | 
4 | C/C(=N\Nc1nc(-c2ccc(Br)cc2)cs1)c1ccc(Nc2nc(N)nc(N)n2)cc1 [Compound 4d, (E)-N^2-(4-(1-(2-(4-(4-bromophenyl)-1,3-thiazol-2-yl)hydrazinylidene)ethyl)phenyl)-1,3,5-triazine-2,4,6-triamine] | 102 | 104 | 102 | 106 | 75.2 | 62.8 | 29.3 | 15.1 | 37.8 (≈ 76.2 µM) | 65.2 ± 24.5 |  |  |  |  |  |  |  |  |  | 
5 | C/C(=N\Nc1nc(-c2ccc(Cl)c(Cl)c2)cs1)c1ccc(Nc2nc(N)nc(N)n2)cc1 [Compound 4i, (E)-N^2-(4-(1-(2-(4-(3,4-dichlorophenyl)-1,3-thiazol-2-yl)hydrazinylidene)ethyl)phenyl)-1,3,5-triazine-2,4,6-triamine] | 101 | 102 | 79 | 55.9 | 45.7 | 41.1 |  |  | 14.9 (≈ 30.7 µM) | > 100 |  |  |  |  |  |  |  |  |  | 
6 | C/C(=N\Nc1nc(-c2cc3ccccc3oc2=O)cs1)c1ccc(Nc2nc(N)nc(N)n2)cc1 [Compound 4f, (E)-3-(2-(2-(1-(4-(4,6-diamino-1,3,5-triazin-2-yloamino)phenyl)ethylidene)hydrazinyl)thiazol-4-yl)-2H-chromen-2-on] |  |  |  |  |  |  |  |  |  |  | 101.02 | 98.89 | 75.89 | 64.30 | 55.65 | 50.52 | 37.17 | 21.53 | >100 | 14.03
7 | CC(=O)Nc1ccc(-c2csc(N/N=C(\C)c3ccc(Nc4nc(N)nc(N)n4)cc3)n2)cc1 [Compound 4g, (E)-N^2-(4-(2-(2-(1-(4-(4,6-diamino-1,3,5-triazin-2-yloamino)phenyl)ethylidene)hydraziny)thiazol-4-yl)phenyl)-acetamide] |  |  |  |  |  |  |  |  |  |  | 100.01 | 100.69 | 69.35 | 66.62 | 46.71 | 42.95 | 41.74 | 18.70 | >100 | 19.11
8 | C/C(=N\Nc1nc(-c2ccc(I)cc2)cs1)c1ccc(Nc2nc(N)nc(N)n2)cc1 [Compound 4e, (E)-N^2-(4-(1-(2-(4-(4-iodophenyl)-1,3-thiazol-2-yl)hydrazinylidene)ethyl)phenyl)-1,3,5-triazine-2,4,6-triamine] | 103 | 104 | 99.9 | 92.8 | 80.7 | 75.1 | 48.7 | 14.6 | 49.2 (≈ 90.5 µM) | > 100 |  |  |  |  |  |  |  |  |  | 
